According to article PMC5122387 (2016):

Experiments:
Assay in all cases: Dox fluorescence quenching
[1] = test system: MUC1 aptamer (Apt) (DNA, aptamer) GCAGTTGATCCTTTGGATACCCTGG; conditions: not stated; 3 nM Dox; complete quenching at DNA:Dox molar ratio 1; buffer not stated
[2] = test system: Apt-Td (aptamer-tetrahedron complex) (DNA, other) AGGAAGAGAGAAGGAAGGGAATTTTTACATTCCTAAGTCTGAAACATTACAGCTTGCTACACGAGAAGAGCCGCCATAGTA/TATCACCAGGCAGTTGACAGTGTAGCAAGCTGTAATAGATGCGAGGGTCCAATAC/TCAACTGCCTGGTGATAAAACGACACTACGTGGGAATCTACTATGGCGGCTCTTC/TTCAGACTTAGGAATGTGCTTCCCACGTAGTGTCGTTTGTATTGGACCCTCGCAT/TTCCCTTCCTTCTCTCTTCCTCTCTCGCAGTTGATCCTTTGGATACCCTG; conditions: not stated for assay; assembled in 50 mM MgCl2; 3 nM Dox; complete quenching at DNA:Dox molar ratio 0.04; assembled in 20 mM Tris-HCl, pH 8.0
[3] = test system: DNA tetrahedron (Td) (DNA, other) ACATTCCTAAGTCTGAAACATTACAGCTTGCTACACGAGAAGAGCCGCCATAGTA/TATCACCAGGCAGTTGACAGTGTAGCAAGCTGTAATAGATGCGAGGGTCCAATAC/TCAACTGCCTGGTGATAAAACGACACTACGTGGGAATCTACTATGGCGGCTCTTC/TTCAGACTTAGGAATGTGCTTCCCACGTAGTGTCGTTTGTATTGGACCCTCGCAT; conditions: not stated for assay; assembled in 50 mM MgCl2; 3 nM Dox; complete quenching at DNA:Dox molar ratio 0.05; Td assembled in 20 mM Tris-HCl, pH 8.0

Measured: binding

COc1cccc2c1C(=O)c1c(O)c3c(c(O)c1C2=O)C[C@@](O)(C(=O)CO)C[C@@H]3O[C@H]1C[C@H](N)[C@H](O)[C@H](C)O1
yes: all assays above
